Assay results as given in patent US20130210899A1, “Method and Therapeutic for the Treatment and Regulation of Memory Formation” (The Regents of the University of California, priority 2010, published 2013).

Legend:
mice [1] = experiment: Acquisition of cocaine conditioned place preference, treatment after conditioning sessions; type: in vivo; conditions: 10 mg/kg s.c. following each conditioning session; cocaine 5 mg/kg i.p.
Protocol: In an experiment with a similar design as described above, animals were confined to a specific compartment and given cocaine (5 mg/kg, i.p.) or saline on alternating days. Immediately following the conditioning session (30 min), mice received an injection of RGFP966 (10 mg/kg, s.c.) or vehicle and then returned to the home cage. Forty-eight hours after the last conditioning session, animals had free access to all 3 compartments and preference was assessed in a drug-free state (15 min, Posttest; day 10). CPP score indicates preference by mean±S.E.M. of time in CS+ minus CS− compartment. All groups extinguished the preference for the CS+ compartment by extinction day 6. The following day, animals received a cocaine prime (10 mg/kg, i.p.) and were placed in the test chamber (Reinstatement).
In this test, mice were conditioned with two pairings of a low dose of cocaine (5 mg/kg, i.p.) and saline. Following each conditioning session, mice received RGFP966 (10 mg/kg, s.c.) or vehicle.

mice [2] = experiment: Cocaine-primed reinstatement of conditioned place preference; type: in vivo; conditions: cocaine prime 10 mg/kg i.p.
Protocol: Conditioned place preference experiments were similar to those described in Malvaez et al. (Malvaez, M., et al., Biological Psychiatry, 67, 36-43, 2010, the disclosure of which is incorporated herein by reference). Mice were briefly handled for 3 consecutive days (days 1-3). Baseline preferences were assessed by placing the animals in the three-chambered apparatus for 15 min (Pretest, day 4). Time spent in each compartment was recorded. Conditioning took place over the next 4 days with the guillotine doors closed, confining animals to a specific compartment for 30 min (days 5-8). An unbiased paradigm was used such that half of the animals were injected with cocaine (20 mg/kg, i.p.) before placement in the checkered compartment and half were injected with cocaine before placement in the white compartment (CS+). […] Forty-eight hours after the last conditioning session, animals had access to all 3 compartments and preference was assessed in a drug-free state (15 min, Posttest; day 10). […]
In an experiment with a similar design as described above, animals were confined to a specific compartment and given cocaine (5 mg/kg, i.p.) or saline on alternating days. […] Forty-eight hours after the last conditioning session, animals had free access to all 3 compartments and preference was assessed in a drug-free state (15 min, Posttest; day 10). […]

C57BL/6J male mice [3] = experiment: Novel object recognition memory (ORM) task after subthreshold training; type: in vivo; conditions: 24 h test; for long-term memory formation vs vehicle-treated mice, ORM: 3, 10, 30 mg/kg s.c. after 3 min training; for dose-dependent effect on ORM: 3, 10, 30 mg/kg s.c.
Protocol: Training and testing for location-dependent object recognition memory (OLM) and novel object recognition memory (ORM) was carried out as previously described. […] The experimental apparatus was a white rectangular open field (30×23×21.5 cm).
24-h later mice were tested for memory retention (5 min) using the object recognition memory task, in which a familiar object was replaced with a novel one. A discrimination index (DI) above zero indicates a preference for the novel object.

mice [4] = experiment: Extinction of cocaine conditioned place preference (CPP); type: in vivo; conditions: 10 mg/kg s.c. immediately following Posttest; Ext2 and Ext3
Protocol: Conditioned place preference experiments were similar to those described in Malvaez et al. (Malvaez, M., et al., Biological Psychiatry, 67, 36-43, 2010, the disclosure of which is incorporated herein by reference). Mice were briefly handled for 3 consecutive days (days 1-3). Baseline preferences were assessed by placing the animals in the three-chambered apparatus for 15 min (Pretest, day 4). Time spent in each compartment was recorded. Conditioning took place over the next 4 days with the guillotine doors closed, confining animals to a specific compartment for 30 min (days 5-8). An unbiased paradigm was used such that half of the animals were injected with cocaine (20 mg/kg, i.p.) before placement in the checkered compartment and half were injected with cocaine before placement in the white compartment (CS+). The next day, mice received 0.9% saline injection (1.0 ml/kg, i.p.) before placement in the alternate compartment (CS−). Injections were alternated for subsequent conditioning sessions. Forty-eight hours after the last conditioning session, animals had access to all 3 compartments and preference was assessed in a drug-free state (15 min, Posttest; day 10). This is also the first of the extinction sessions which occurred daily until extinction criteria were met. […]

in vivo = conditions: mouse, brain, sc, 30 mg/kg
CBP^+/+ mice = experiment: OLM task in CBP+/+ mice after intrahippocampal infusion; type: in vivo; conditions: intrahippocampal 1.25 ng/side after 3 min training, 24 h
Protocol: (§1) To generate a focal deletion, mice were infused with adeno associated virus expressing Cre-recombinase (AAV2/1-Cre; Penn Vector Core, University of Pennsylvania, Philadelphia, Pa.) 2 weeks prior to behavioral procedures. Mice were anesthetized with isoflurane and placed in a digital Just For Mice stereotax (Stoelting, Wood Dale, Ill.). 1.0 μl of virus was injected at a rate of 6 μl/hr via an infusion needle positioned in the dorsal CA1 area of the hippocampus (antereoposterior (AP) −2.0; mediolateral (ML) ±1.5; dorsoventral (DV) −1.5). NCoR homozygous knock-in mice (referred to as DADm mice) were generated on C57BL/6 background using homologous recombination to incorporate a single amino acid substitution (Y478A) in the NCoR deacetylase activation domain (DAD). […]
(§2) All combinations and locations of objects were used in a balanced manner to reduce potential biases due to preference for particular locations or objects. All training and testing trials were videotaped and analyzed by individuals blind to the treatment condition and the genotype of subjects. A mouse was scored as exploring an object when its head was oriented toward the object within a distance of 1 cm or when the nose was touching the object. The relative exploration time was recorded and expressed by a discrimination index [DI=(tnovel−tfamiliar)/(tnovel+tfamiliar)×100]. […]

H4K8Ac = experiment: Immunohistochemistry of dorsal hippocampus 2 hours after intrahippocampal infusion; type: in vivo, C57BL/6 mice; conditions: 1.25 ng/side intrahippocampal infusion
Protocol: (§3) Two weeks after mice were infused with AAV-Cre or two hours after hippocampal infusion of the inhibitor, mice were anesthetized deeply with sodium pentobarbital (100 mg/kg, i.p.) and perfused transcardially with ice-cold PBS, pH 7.4, followed by ice-cold 4% paraformaldehyde in PBS, pH 7.4, using a peristaltic perfusion pump (Fisher Scientific). The brains were removed, postfixed overnight at 4° C., and then transferred to 30% sucrose for 48 hr at 4° C. Brains were frozen and cryocut to 20 μm coronal slices, and sections were stored in 0.1M PBS. Floating sections were rinsed in 0.1% Triton X-100 (Fisher Scientific) in PBS, rinsed in PBS, and then blocked for 1 hr at room temperature in 8% normal goat serum (NGS, Jackson ImmunoResearch Laboratories) with 0.3% Triton X-100 in PBS. Sections were rinsed in PBS and for single labeling they were incubated overnight at 4° C. in 2% NGS, 0.3% Triton X-100 in PBS with primary antibody. The sections were then rinsed in PBS and incubated for 2 hr at room temperature with goat anti-rabbit IgG-FITC secondary antibody (1:1000, Millipore Bioscience International). […]
(§4) Images were acquired and using an Olympus (BX51, Japan) microscope using a 4× or 20× objective, CCD camera (QImaging), and QCapture Pro 6.0 software (QImaging) and quantified with ImageJ software (NIH). […]

neuronal morphology = experiment: DAPI staining of neuronal morphology after intrahippocampal infusion; type: in vivo, C57BL/6 mice; conditions: 1.25 ng/side intrahippocampal infusion, 2 hours
Protocol: as §3, with “International). Sections were rinsed again in PBS and mounted on slides using ProLong Gold antifade reagent with DAPI (Invitrogen).” for “International).”

CBP^KIX/KIX mice = experiment: OLM task in CBP KIX/KIX mutant mice after intrahippocampal infusion; type: in vivo; conditions: intrahippocampal 1.25 ng/side after 3 min training, 24 h
Protocol: as §1, §2

C57BL/6J male mice [5] = experiment: Location-dependent object recognition memory (OLM) task after subthreshold training; type: in vivo; conditions: for memory for object location vs vehicle, OLM: 1.25 ng/side intrahippocampal after 3 min training
Protocol: Training and testing for location-dependent object recognition memory (OLM) and novel object recognition memory (ORM) was carried out as previously described. (See, e.g., Roozendaal et al., J Neurosci 30:5037-5046, 2010, the disclosure of which is incorporated herein by reference.) Prior to training, mice were handled 1-2 min for 5 days and were habituated to the experimental apparatus 3 min a day for 3 consecutive days in the absence of objects. The experimental apparatus was a white rectangular open field (30×23×21.5 cm).
(See, Stefanko et al., Proc Natl Acad Sci USA 106:9447-9452, 2009, the disclosures of which are incorporated herein by reference.) During the 24-h or 7-day retention test, mice were placed in the experimental apparatus for 5 min. For object recognition memory (ORM), one copy of the familiar object (A3) and a new object (B1) were placed in the same location as during the training trial. For location-dependent object recognition memory (OLM), one copy of the familiar object (A3) was placed in the same location as during the training trial and one copy of the familiar object (A4) was placed in the middle of the box.
All combinations and locations of objects were used in a balanced manner to reduce potential biases due to preference for particular locations or objects. All training and testing trials were videotaped and analyzed by individuals blind to the treatment condition and the genotype of subjects. A mouse was scored as exploring an object when its head was oriented toward the object within a distance of 1 cm or when the nose was touching the object. The relative exploration time was recorded and expressed by a discrimination index [DI=(tnovel−tfamiliar)/(tnovel+tfamiliar)×100].
Animals were tested for short-term memory 90 min after training.
In addition, a separate group of mice were given a 3 min training period and then a 7 day retention test.

HDAC2 = target: T1, HDAC2 (Mus musculus, UniProt P70288); experiment: Immunohistochemistry of dorsal hippocampus 2 hours after intrahippocampal infusion; type: in vivo, C57BL/6 mice; conditions: 1.25 ng/side intrahippocampal infusion
T1 construct: from tissue; host or cells: dorsal hippocampus of C57BL/6 mice
T1 sequence (P70288 whole entry, the tested form may be a part): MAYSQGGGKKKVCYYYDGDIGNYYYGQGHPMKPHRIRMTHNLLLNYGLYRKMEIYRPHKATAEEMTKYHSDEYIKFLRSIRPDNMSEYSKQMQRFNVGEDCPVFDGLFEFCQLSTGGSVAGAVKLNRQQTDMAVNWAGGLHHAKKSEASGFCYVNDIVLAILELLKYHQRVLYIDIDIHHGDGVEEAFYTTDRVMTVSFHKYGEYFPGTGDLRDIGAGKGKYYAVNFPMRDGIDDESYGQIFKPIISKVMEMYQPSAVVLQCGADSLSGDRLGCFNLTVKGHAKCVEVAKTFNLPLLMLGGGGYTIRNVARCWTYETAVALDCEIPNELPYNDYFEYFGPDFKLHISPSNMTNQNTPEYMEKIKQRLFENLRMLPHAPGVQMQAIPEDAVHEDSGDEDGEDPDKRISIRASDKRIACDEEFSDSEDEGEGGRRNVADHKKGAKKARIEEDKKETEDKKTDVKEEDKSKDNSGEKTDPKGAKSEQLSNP
Protocol: as §3, §4

HDAC4 = experiment: as above; type: in vivo, C57BL/6 mice; conditions: 1.25 ng/side intrahippocampal infusion
Protocol: as §3, §4

| SMILES | effect on cocaine conditioned place preference (Posttest) (mice [1]) | reinstatement of preference after cocaine prime (mice [2]; 3 mg/kg received during extinction) | reinstatement of preference after cocaine prime (mice [2]; 10 mg/kg received during extinction) | long-term memory formation vs vehicle-treated mice, ORM (C57BL/6J male mice [3]) | dose-dependent effect on ORM (C57BL/6J male mice [3]) | extinction of preference for the cocaine-paired compartment (CPP score) (mice [4]) | Cmax (in vivo) [nM] | memory for novel object location vs vehicle, OLM (CBP^+/+ mice) | immunoreactivity for H4K8Ac vs vehicle (H4K8Ac) | neuronal morphology (DAPI staining) vs vehicle (neuronal morphology) | effect on long-term memory, OLM (CBP^KIX/KIX mice) | memory for object location vs vehicle, OLM (C57BL/6J male mice [5]; 24 hours) | memory for object location vs vehicle, OLM (C57BL/6J male mice [5]; 7 day retention test) | preference for the object in the novel location vs vehicle, OLM (C57BL/6J male mice [5]; 30 mg/kg s.c. post-training, 24 h retention test) | HDAC2 expression vs vehicle (HDAC2) | HDAC4 nuclear expression vs vehicle (HDAC4) |
| --- | --- | --- | --- | --- | --- | --- | --- | --- | --- | --- | --- | --- | --- | --- | --- | --- |
| Nc1cc(F)ccc1NC(=O)/C=C/c1cnn(CC=Cc2ccccc2)c1 [RGFP966, (E)-N-(2-amino-4-fluorophenyl)-3-(1-cinnamyl-1H-pyrazol-4-yl)acrylamide] | does not alter | significant preference | did not reinstate a preference | significantly enhanced | lack of an observed dose effect | rapid extinction | – | – | – | – | – | – | – | – | – | – |
| Cc1ccc(C(=O)NCCCCCC(=O)Nc2ccc(F)cc2N)cc1 [RGFP136, N-(6-(2-amino-4-fluorophenylamino)-6-oxohexyl)-4-methylbenzamide] | – | – | – | significantly enhanced | Significant dose-dependent effects | – | ~1700 | significantly greater memory | increase | does not alter neuronal morphology | no effect | greater memory | significantly greater memory | significant preference | unchanged | loss of HDAC4 nuclear expression |
